Patent US6765096B1, “Tricyclic compound having acyloxymethoxycarbonyl side chain” (Shionogi & Co., Ltd., priority 1999, dated 2004)

What was measured:
[1] = tested on: anti-ovalbumin (OVA) IgE antibody production; experiment: IgE antibody production inhibiting effects against anti-ovalbumin (OVA); anti-OVA IgE antibody titer (PCA titer); type: in vivo, BALB/c mice; details: consecutive 10 days, OVA-immunized BALB/c mouse, Log2 of maximum serum dilution giving PCA positive reaction in Wistar rat
Method: Test Example 1 IgE Antibody Production Inhibiting Effects Against Anti-ovalbumin (OVA)
BALB/c mice (female, 8-10 weeks old) and Wistar rats (female, 8-10 weeks old) purchased from Japan SLC (Shizuoka) were used.
2) Method of Immunization
0.2 mL of a solution obtained by suspending 2 μg of ovalbumin (OVA) and 2 mg of aluminium hydroxide gel in a physiological saline was injected in a BALB/c mouse intraperitoneally to immunize it. After ten days, blood was taken from the heart, serum was separated, and stored at −40° C. until the IgE antibody titer was measured.
[…] Administration was carried out for consecutive 10 days from an immunization day to the day before a blood collection day.
4) Measurement of Anti-OVA IgE Antibody Titer (PCA Titer)
The resulting mouse serum was prepared into a 2-fold dilution series using a physiological saline, each 50 μl of which was injected to a pre-haircut Wistar rat intracutaneously at a back. After 24 hours, 0.5 mL of a physiological saline containing 1 mg of OVA and 5 mg of Evans Blue pigment was injected intravenously to induce passive cutaneous anaphylaxis reaction (PCA). After 30 minutes, a maximum dilution rate of the serum showing PCA positive reaction of a pigment spot having a diameter of 5 mm or more was determined, and Log2 of its dilution rate was adopted as a PCA titer. For example, when a serum becomes PCA reaction positive until 2^7-fold dilution, an anti-OVA IgE antibody titer of the mouse is 7.

[2] = Oral absorption test, fasting rat (Test Examples 2 and 3); type: in vivo, Jcl:SD male rat; details: rat 18 hours fasting
Method: Test Example 2 Oral Absorption Test
(§1) The present compound (I-1) was ground with an agate mortar, which was prepared into an aqueous suspension having the concentration of 10 mg/mL using a 0.5% aqueous methylcellulose solution as a vehicle. Each compound was orally administered to a Jcl:SD male rat (10 weeks old, 18 hours fasting) as a parent compound at a rate of 20 mg/kg. 0.5, 1, 2, 4, 6, 8 and 24 hours after administration, 0.3 mL of blood was taken from a cannula inserted in rat jugular in advance. The blood was centrifuged to obtain a plasma. 0.5 mL of a mixed solution of methanol and acetonitrile (1/1 (w/w)) was added to 0.1 mL of the plasma, proteins were removed therefrom, followed by centrifugation. The supernatant was used as a HPLC sample.
The oral absorbabilities of the present compound (I-163) and its parent compound (II-4) were measured as in Test Example 2.

[3] = Oral absorption test, non-fasting rat (Test Example 4); type: in vivo
Method: as §1
Test Example 4 Oral Absorption Test
The oral absorbabilities of the present compound (I-16) and its parent compound (II-1) were measured as in Test Example 2 using a non-fasting rat.

[4] = oral administration, only parent compound (II-1) observed
[5] = plasma concentration of parent compound after oral administration, 20 mg/kg as parent compound
[6] = plasma concentration of parent compound (II-1) after oral administration

CC(C)=CCOc1ccc(-c2cc(C)c(-c3ccc(N(CC=C(C)C)C(=O)OCOC(=O)CCC(N)=O)cc3F)cc2C)cn1 [Compound I-1]
anti-OVA IgE antibody titer (PCA titer) ([1]; 3 mg/Kg orally): 7.0 | anti-OVA IgE antibody titer (PCA titer) ([1]; 10 mg/Kg orally): 0.8 | administered prodrug itself in the circulating plasma [2, 4]: not detected | AUC [2, 5]: 32030 ng·h/mL | Cmax [2, 5]: 2500 ng/mL

CC(=O)NC(CCC(=O)OCOC(=O)N(CC=C(C)C)c1ccc(-c2cc(C)c(-c3ccc(OCC=C(C)C)nc3)cc2C)c(F)c1)C(N)=O (stereo not drawn) [Compound I-6, 4-acetylamino-4-carbamoyl-butyric acid [{2-fluoro-2′,5′-dimethyl-4′-[6-(3-methyl-but-2-enyloxy)-pyridin-3-yl]-biphenyl-4-yl}-(3-methyl-but-2-enyl)-carbamoyloxy]-methyl ester]
anti-OVA IgE antibody titer (PCA titer) ([1]; 10 mg/Kg orally): 1.8

CC(=O)NC(CC(N)=O)C(=O)OCOC(=O)N(CC=C(C)C)c1ccc(-c2cc(C)c(-c3ccc(OCC=C(C)C)nc3)cc2C)c(F)c1 (stereo not drawn) [Compound I-13, 2-acetylamino-succinamic acid [{2-fluoro-2′,5′-dimethyl-4′-[6-(3-methyl-but-2-enyloxy)-pyridin-3-yl]-biphenyl-4-yl}-((E)-3-methyl-but-2-enyl)-carbamoyloxy]-methylester]
anti-OVA IgE antibody titer (PCA titer) ([1]; 10 mg/Kg orally): <0

CC(=O)NC(CCC(N)=O)C(=O)OCOC(=O)N(CC=C(C)C)c1ccc(-c2cc(C)c(-c3ccc(OCC=C(C)C)nc3)cc2C)c(F)c1 (stereo not drawn) [Compound I-15, 2-acetylamino-4-carbamoyl-butyric acid [{2-fluoro-2′,5′-dimethyl-4′-[6-(3-methyl-but-2-enyloxy)-pyridin-3-yl]-biphenyl-4-yl}-((E)-3-methyl-but-2-enyl)-carbamoyloxy]-methyl ester]
anti-OVA IgE antibody titer (PCA titer) ([1]; 10 mg/Kg orally): 0

CC(=O)NCC(=O)NCC(=O)OCOC(=O)N(CC=C(C)C)c1ccc(-c2cc(C)c(-c3ccc(OCC=C(C)C)nc3)cc2C)c(F)c1 [Compound I-16, (2-acetylamino-ethanoylamino)-acetic acid [{2-fluoro-2′,5′-dimethyl-4′-[6-(3-methyl-but-2-enyloxy)-pyridin-3-yl]-biphenyl-4yl]}-((E)-3-methyl-but-2-enyl)-carbamoyloxy]-methyl ester]
anti-OVA IgE antibody titer (PCA titer) ([1]; 10 mg/Kg orally): <0 | administered prodrug itself in the circulating plasma [3, 4]: not detected | AUC [3, 6]: 165520 ng·h/mL | Cmax [3, 6]: 16020 ng/mL
